Experimental data as given in patent publication US20200046856A1, “METHODS FOR IDENTIFYING MBLAC1-DEPENDENT MOLECULAR NETWORKS” (Florida Atlantic University Board of Trustees, priority 2018, published 2020).
Entries after “also recorded” stand apart in the source; their conditions may differ.

Experiments:
MBLAC1 [1] = target: T1, MBLAC1 (Mus musculus, UniProt Q8BWY4); assay: BSI binding assay, mouse frontal cortex lysates with and without MBLAC1 immunodepletion
T1 construct: from tissue; host or cells: frontal cortex of wild type C57BL/6J mice, 100,000 x g supernatant
T1 sequence (Q8BWY4 1-260): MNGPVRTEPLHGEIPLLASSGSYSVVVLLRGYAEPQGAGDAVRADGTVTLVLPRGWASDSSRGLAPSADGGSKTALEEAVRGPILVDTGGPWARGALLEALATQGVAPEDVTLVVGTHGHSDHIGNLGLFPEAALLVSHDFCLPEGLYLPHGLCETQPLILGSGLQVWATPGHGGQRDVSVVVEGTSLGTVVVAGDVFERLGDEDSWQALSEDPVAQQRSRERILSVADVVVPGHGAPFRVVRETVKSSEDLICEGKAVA
Procedure: To detect endogenous Cef binding and to determine whether MBLAC1 is likely to be responsible for observed interactions, the BSI experiments were repeated using mouse frontal cortex lysates, with and without prior heat denaturation. To determine whether, and to what degree, Cef binding signals derive from MBLAC1, BSI studies were performed on lysates that had been immunodepleted of MBLAC1 protein by anti-MBLAC1 antibody (#80). […] These findings support the contention that, under these binding conditions, MBLAC1 is likely the primary species in brain lysates capable of interacting with Cef at high-affinity—that the well-replicated actions Cef in the CNS arise through MBLAC1 interactions.
Wild type C57BL/6J mice (Jackson Labs, Bar Harbor, Me.) were rapidly decapitated and frontal cortex was dissected. […] Supernatants were collected, diluted with 2× lysis buffer (40 mM HEPES, 220 mM KCl, 20 mM NaCl, 4 mM MgCl, 10 mM KH2PO4, 500 μM ZnSO4) and protein concentration determined (BCA Protein Assay, ThermoFisher, Waltham, Mass.). […]
To assess the binding of unlabeled Cef with MBLAC1 in cell and tissue lysates, BSI was utilized. […] RI changes are quantified by comparing fringe shifts between test and reference samples. […]

MBLAC1 [2] = assay: Affinity capture of MBLAC1 with Cef-conjugated Sepharose beads, free Cef competition; settings: 50 μM free Cef preincubated with MBLAC1 containing extract; n=6
human MBLAC1 = target: T2, human MBLAC1 (Homo sapiens, UniProt A4D2B0); assay: Backscattering Interferometry (BSI) binding assay, lysates of T-REx cells expressing human MBLAC1; settings: TET induced vs non-induced T-REx lysates, 5 μM and 50 μM
T2 construct: expressed in transfected cells; host or cells: HEK Flp-In T-REx-293 cells, pcDNA5/FRT/TO, TET-induced, lysate
T2 sequence (A4D2B0 1-266): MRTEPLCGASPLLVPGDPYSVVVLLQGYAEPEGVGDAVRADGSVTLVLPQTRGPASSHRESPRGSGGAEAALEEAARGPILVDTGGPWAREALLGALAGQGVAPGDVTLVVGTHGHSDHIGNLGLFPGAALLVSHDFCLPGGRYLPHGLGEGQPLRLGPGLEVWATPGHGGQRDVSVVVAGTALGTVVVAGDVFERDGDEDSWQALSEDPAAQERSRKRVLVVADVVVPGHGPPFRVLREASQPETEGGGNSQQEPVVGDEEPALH
Description: Although the pulldown approach provided initial evidence of Cef interactions with MBLAC1, the efficiency of competition was lower than expected, based on prior studies reporting the in vitro potency of Cef for GLT-1 induction. It was reasoned that steric hindrance could limit high-affinity interactions of MBLAC1 with Cef-conjugated beads. As radiolabeled Cef was unavailable, a non-isotopic approach that could examine Cef/MBLAC1 interactions without ligand immobilization was sought. […]
To assess the binding of unlabeled Cef with MBLAC1 in cell and tissue lysates, BSI was utilized. […] RI changes are quantified by comparing fringe shifts between test and reference samples.
Lysates for BSI contained Cef at concentrations of 0 μM, 5 μM, and 50 μM and concentrations of either 300 μg/mL (mouse cell lysates) or 100 μg/mL (human cell lysates and mouse brain lysates) protein. […] To obtain BSI signals, the sample with 0 μM Cef was injected into the channel in a stop-flow manner using a vacuum and allowed to reach temperature and pressure equilibrium (˜10 sec) at which point the phase value (BSI signal) was measured for 20 sec. Specific BSI signal was determined by subtracting Cef only signal from Cef-lysate signals. […]

mouse MBLAC1 = target: T3, mouse MBLAC1 (Mus musculus, UniProt Q8BWY4); assay: Backscattering Interferometry (BSI) binding assay, lysates of T-REx cells expressing mouse MBLAC1; settings: for BSI binding signal: TET induced vs non-induced T-REx lysates, mouse MBLAC1, 5 μM and 50 μM
T3 construct: expressed in transfected cells; host or cells: HEK Flp-In T-REx-293 cells, pcDNA5/FRT/TO, TET-induced, lysate
T3 sequence (Q8BWY4 1-260): T1 sequence (Q8BWY4 1-260)
Description: Although the pulldown approach provided initial evidence of Cef interactions with MBLAC1, the efficiency of competition was lower than expected, based on prior studies reporting the in vitro potency of Cef for GLT-1 induction. It was reasoned that steric hindrance could limit high-affinity interactions of MBLAC1 with Cef-conjugated beads. As radiolabeled Cef was unavailable, a non-isotopic approach that could examine Cef/MBLAC1 interactions without ligand immobilization was sought. Backscattering interferometry is a sensitive approach that can detect both kinetic and equilibrium associations of unlabeled, small molecule interactions with unmodified target proteins (Bornhop et al., Science vol. 317, 1732-1736, 2007). […] BSI signals were eliminated by heat denaturation of extracts prior to analysis, consistent with Cef binding as arising from a proteinaceous species versus TET used to induce MBLAC1 expression.
To assess the binding of unlabeled Cef with MBLAC1 in cell and tissue lysates, BSI was utilized. A BSI instrument was assembled and employed (Kussrow et al., Anal Chem 84, 779-792, 2012). Briefly, BSI, using a semi-circular chip, a helium-neon laser, and CCD camera, allows for high-sensitivity, refractive index (RI) sensing. The RI signal is obtained by isolating shifts in the backscattered fringes by Fourier analysis. RI changes are quantified by comparing fringe shifts between test and reference samples.
Lysates for BSI contained Cef at concentrations of 0 μM, 5 μM, and 50 μM and concentrations of either 300 μg/mL (mouse cell lysates) or 100 μg/mL (human cell lysates and mouse brain lysates) protein. Samples were incubated on ice for 1 hr prior to analysis to favor equilibrium binding conditions. To obtain BSI signals, the sample with 0 μM Cef was injected into the channel in a stop-flow manner using a vacuum and allowed to reach temperature and pressure equilibrium (˜10 sec) at which point the phase value (BSI signal) was measured for 20 sec. Specific BSI signal was determined by subtracting Cef only signal from Cef-lysate signals. […]

[3] = tested on: MBLAC1 WT and MBLAC1 KO mice; assay: Effect of repeated Cef on cocaine-induced locomotion (open field); assay type: in vivo, mouse; settings: 200 mg/kg IP once daily for 10 days, cocaine 10 mg/kg 24 h later, first 30 min
Procedure: Animals: All mice were used in accordance with protocols approved by the Florida Atlantic University Institutional Animal Care and Use Committee. Mice were group-housed on a 12 h/12 h light/dark cycle and given ad libitum access to food and water. Breeding was accomplished with mating of heterozygous males with heterozygous females. Male and female mice 11-13 weeks old at the start of the experiment were used in testing the effects of repeated ceftriaxone on response to cocaine in the open field assay. Data from males and females were combined.
Repeated ceftriaxone treatment/acute cocaine administration: MBLAC1 wild-type (WT, MBLAC1^+/+) and knockout mice (MBLAC1^−/−) were used in this experiment. Mice were injected IP once daily for 10 days with 200 mg/kg ceftriaxone (CEF) or saline. Twenty-four hours following the last CEF injection, mice were injected with 10 mg/kg cocaine or saline followed immediately by testing in open field activity chambers (Med Associates, Fairfax, Vt.) for 60 minutes. Locomotor activity was evaluated by photocells in the X, Y and Z dimensions. Horizontal beam breaks, vertical beam breaks, and repetitive movements were recorded and measures, including distance traveled, vertical rearing and stereotypic counts, were calculated. Data were analyzed in 5 min time bins within session, and for the first 30 min following cocaine injection. Data were analyzed by two-way ANOVA repeated measures, with time bin as the repeated measure, or by two-way ANOVA for 30 min cumulated data. At the end of behavior, mice were euthanized by CO2.
The methods were performed essentially as described in Tallarida et al. Neurosci Lett vol. 556, p. 155-159, 2013.

CO/N=C(\C(=O)N[C@@H]1C(=O)N2C(C(=O)O)=C(CSc3nc(=O)c(=O)[nH]n3C)CS[C@H]12)c1csc(N)n1 [Cef, ceftriaxone]
BSI binding signal in MBLAC1-immunodepleted mouse frontal cortex lysate (MBLAC1 [1]; immunodepleted with MBLAC1 antibody #80): the Cef binding signal was abolished; also recorded: eliminated Cef binding activity | BSI binding signal in mouse frontal cortex lysate (MBLAC1 [1]; non-depleted lysate, 5 μM and 50 μM): shows binding signal with Cef | Mean reduction in MBLAC1 binding to immobilized Cef (MBLAC1 [2]): 52.4±9.3% | BSI binding signal (human MBLAC1): significant, dose-dependent BSI signals were detected only in induced cell lysates; also recorded: concentration-dependent, heat-sensitive BSI binding signals | BSI binding signal (mouse MBLAC1): significant, dose-dependent BSI signals were detected only in induced cell lysates; also recorded: concentration-dependent, heat-sensitive BSI binding signals | Kd (mouse MBLAC1; lysate from mouse MBLAC1 expressing cells, Cef 0.78 μM to 50 μM, r2=0.96, read-out: KD for binding (single site binding equation fit to BSI data)): 2200 nM | Effect of Cef pretreatment on cocaine-induced locomotion in MBLAC1 KO mice [3]: no ability to attenuate cocaine actions | Effect of Cef pretreatment on cocaine-induced locomotion in MBLAC1 WT mice [3]: the locomotor activating effects of cocaine were lost | Effect of Cef pretreatment on cocaine-induced locomotion in MBLAC1 KO mice ([3]; listed as CEF): had no effect on the response to cocaine | Effect of Cef pretreatment on cocaine-induced locomotion in MBLAC1 WT mice ([3]; listed as CEF): completely blocked the effects of cocaine

CC(=O)OCC1=C(C(=O)O)N2C(=O)[C@@H](NC(=O)CCC[C@@H](N)C(=O)O)[C@H]2SC1 [CephC, cephalosporin C]
BSI binding signal (mouse MBLAC1): a significant CephC BSI signal (FIG. 3D) was not seen; also recorded: non-significant reduction in BSI signal
